From ChEMBL document CHEMBL4393657, “Tetrazole hybrids and their antifungal activities” (2019)
Values after ≈ are worked out from the molar mass of the structure shown.

Tests used:
Format in all cases: functional
Cryptococcus neoformans = test: Antifungal activity against Cryptococcus neoformans LA314 assessed as reduction in fungal cell growth incubated for 48 hrs by broth microdilution method; settings: LA314, 48 h
Nakaseomyces glabratus = test: Antifungal activity against Candida glabrata assessed as reduction in fungal cell growth incubated for 48 hrs by broth microdilution method
Candida parapsilosis = test: Antifungal activity against Candida parapsilosis ATCC 22019 assessed as reduction in fungal cell growth incubated for 48 hrs by broth microdilution method; settings: Lodderomyces parapsilosis, ATCC 22019, 48 h
Pichia kudriavzevii = test: Antifungal activity against Candida krusei assessed as reduction in fungal cell growth incubated for 48 hrs by broth microdilution method
Candida albicans = test: Antifungal activity against Candida albicans assessed as reduction in fungal cell growth incubated for 48 hrs by broth microdilution method
Candida tropicalis = test: Antifungal activity against Candida tropicalis assessed as reduction in fungal cell growth incubated for 48 hrs by broth microdilution method
Aspergillus niger = test: Antifungal activity against Aspergillus niger assessed as reduction in fungal cell growth incubated for 72 hrs by broth microdilution method

Row | SMILES | MIC (Cryptococcus neoformans) [µg/mL] | MIC (Nakaseomyces glabratus) [µg/mL] | MIC (Candida parapsilosis) [µg/mL] | MIC (Pichia kudriavzevii) [µg/mL] | MIC (Candida albicans) [µg/mL] | MIC (Candida tropicalis) [µg/mL] | MIC (Aspergillus niger) [µg/mL]
1 | O=[N+]([O-])c1ccc(N2CCN(CCc3nnnn3CC(O)(Cn3cncn3)c3ccc(F)cc3F)CC2)cc1 (stereo not drawn) | 0.5 to 16 (≈ 0.925 to 29.6 µM) | 0.5 to 16 (≈ 0.925 to 29.6 µM) | 0.5 to 16 (≈ 0.925 to 29.6 µM) | 0.5 to 16 (≈ 0.925 to 29.6 µM) | 0.5 to 16 (≈ 0.925 to 29.6 µM) | 0.5 to 16 (≈ 0.925 to 29.6 µM) | 0.5 to 16 (≈ 0.925 to 29.6 µM)
2 | COc1ccccc1N1CCN(CCc2nnnn2C(C)C(O)(Cn2cncn2)c2ccc(F)cc2F)CC1 (stereo not drawn) | 0.5 to 16 (≈ 0.927 to 29.7 µM) | 0.5 to 16 (≈ 0.927 to 29.7 µM) | 0.5 to 16 (≈ 0.927 to 29.7 µM) | 0.5 to 16 (≈ 0.927 to 29.7 µM) | 0.5 to 16 (≈ 0.927 to 29.7 µM) | 0.5 to 16 (≈ 0.927 to 29.7 µM) | 0.5 to 16 (≈ 0.927 to 29.7 µM)
3 | C[C@H](n1nnc(CCN2CCN(C(c3ccccc3)c3ccccc3)CC2)n1)[C@](O)(Cn1cncn1)c1ccc(F)cc1F | 0.25 to 16 (≈ 0.417 to 26.7 µM) | 0.25 to 16 (≈ 0.417 to 26.7 µM) | 0.25 to 16 (≈ 0.417 to 26.7 µM) | 0.25 to 16 (≈ 0.417 to 26.7 µM) | 0.25 to 16 (≈ 0.417 to 26.7 µM) | 0.25 to 16 (≈ 0.417 to 26.7 µM) | 0.25 to 16 (≈ 0.417 to 26.7 µM)
4 | CC(n1nnnc1CCN1CCN(c2ccccc2)CC1)C(O)(Cn1cncn1)c1ccc(F)cc1F (stereo not drawn) | 0.5 to 16 (≈ 0.981 to 31.4 µM) | 0.5 to 16 (≈ 0.981 to 31.4 µM) | 0.5 to 16 (≈ 0.981 to 31.4 µM) | 0.5 to 16 (≈ 0.981 to 31.4 µM) | 0.5 to 16 (≈ 0.981 to 31.4 µM) | 0.5 to 16 (≈ 0.981 to 31.4 µM) | 0.5 to 16 (≈ 0.981 to 31.4 µM)
5 | CC(n1nnnc1CCN1CCN(c2ccccc2Cl)CC1)C(O)(Cn1cncn1)c1ccc(F)cc1F (stereo not drawn) | 0.5 to 16 (≈ 0.919 to 29.4 µM) | 0.5 to 16 (≈ 0.919 to 29.4 µM) | 0.5 to 16 (≈ 0.919 to 29.4 µM) | 0.5 to 16 (≈ 0.919 to 29.4 µM) | 0.5 to 16 (≈ 0.919 to 29.4 µM) | 0.5 to 16 (≈ 0.919 to 29.4 µM) | 0.5 to 16 (≈ 0.919 to 29.4 µM)
6 | CC(n1nnnc1CCN1CCN(c2c(Cl)cccc2Cl)CC1)C(O)(Cn1cncn1)c1ccc(F)cc1F (stereo not drawn) | 0.5 to 16 (≈ 0.864 to 27.7 µM) | 0.5 to 16 (≈ 0.864 to 27.7 µM) | 0.5 to 16 (≈ 0.864 to 27.7 µM) | 0.5 to 16 (≈ 0.864 to 27.7 µM) | 0.5 to 16 (≈ 0.864 to 27.7 µM) | 0.5 to 16 (≈ 0.864 to 27.7 µM) | 0.5 to 16 (≈ 0.864 to 27.7 µM)
7 | COc1ccc(N2CCN(CCc3nnn(CC(O)(Cn4cncn4)c4ccc(F)cc4F)n3)CC2)cc1 (stereo not drawn) | 1 to 16 (≈ 1.9 to 30.4 µM) | 1 to 16 (≈ 1.9 to 30.4 µM) | 1 to 16 (≈ 1.9 to 30.4 µM) | 1 to 16 (≈ 1.9 to 30.4 µM) | 1 to 16 (≈ 1.9 to 30.4 µM) | 1 to 16 (≈ 1.9 to 30.4 µM) | 1 to 16 (≈ 1.9 to 30.4 µM)
8 | C[C@H](n1nnnc1CCN1CCN(c2ccc(F)cc2)CC1)[C@](O)(Cn1cncn1)c1ccc(F)cc1F | 0.12 to 16 (≈ 0.227 to 30.3 µM) | 0.12 to 16 (≈ 0.227 to 30.3 µM) | 0.12 to 16 (≈ 0.227 to 30.3 µM) | 0.12 to 16 (≈ 0.227 to 30.3 µM) | 0.12 to 16 (≈ 0.227 to 30.3 µM) | 0.12 to 16 (≈ 0.227 to 30.3 µM) | 0.12 to 16 (≈ 0.227 to 30.3 µM)
9 | C[C@H](n1nnc(CCN2CCN(c3ccc(Cl)cc3)CC2)n1)[C@](O)(Cn1cncn1)c1ccc(F)cc1F | 0.25 to 16 (≈ 0.46 to 29.4 µM) | 0.25 to 16 (≈ 0.46 to 29.4 µM) | 0.25 to 16 (≈ 0.46 to 29.4 µM) | 0.25 to 16 (≈ 0.46 to 29.4 µM) | 0.25 to 16 (≈ 0.46 to 29.4 µM) | 0.25 to 16 (≈ 0.46 to 29.4 µM) | 0.25 to 16 (≈ 0.46 to 29.4 µM)
10 | CC(n1nnc(CCN2CCN(c3ccc(Cl)cc3)CC2)n1)C(O)(Cn1cncn1)c1ccc(F)cc1F (stereo not drawn) | 1 to 16 (≈ 1.84 to 29.4 µM) | 1 to 16 (≈ 1.84 to 29.4 µM) | 1 to 16 (≈ 1.84 to 29.4 µM) | 1 to 16 (≈ 1.84 to 29.4 µM) | 1 to 16 (≈ 1.84 to 29.4 µM) | 1 to 16 (≈ 1.84 to 29.4 µM) | 1 to 16 (≈ 1.84 to 29.4 µM)
11 | C[C@H](n1nnnc1CCN1CCN(c2ccccn2)CC1)[C@](O)(Cn1cncn1)c1ccc(F)cc1F | 0.12 to 16 (≈ 0.235 to 31.3 µM) | 0.12 to 16 (≈ 0.235 to 31.3 µM) | 0.12 to 16 (≈ 0.235 to 31.3 µM) | 0.12 to 16 (≈ 0.235 to 31.3 µM) | 0.12 to 16 (≈ 0.235 to 31.3 µM) | 0.12 to 16 (≈ 0.235 to 31.3 µM) | 0.12 to 16 (≈ 0.235 to 31.3 µM)
12 | CC(n1nnc(CCN2CCN(c3ccccc3Cl)CC2)n1)C(O)(Cn1cncn1)c1ccc(F)cc1F (stereo not drawn) | 1 to 16 (≈ 1.84 to 29.4 µM) | 1 to 16 (≈ 1.84 to 29.4 µM) | 1 to 16 (≈ 1.84 to 29.4 µM) | 1 to 16 (≈ 1.84 to 29.4 µM) | 1 to 16 (≈ 1.84 to 29.4 µM) | 1 to 16 (≈ 1.84 to 29.4 µM) | 1 to 16 (≈ 1.84 to 29.4 µM)
13 | CC(n1nnnc1CCN1CCN(c2ccc(Cl)cc2)CC1)C(O)(Cn1cncn1)c1ccc(F)cc1F (stereo not drawn) | 0.5 to 16 (≈ 0.919 to 29.4 µM) | 0.5 to 16 (≈ 0.919 to 29.4 µM) | 0.5 to 16 (≈ 0.919 to 29.4 µM) | 0.5 to 16 (≈ 0.919 to 29.4 µM) | 0.5 to 16 (≈ 0.919 to 29.4 µM) | 0.5 to 16 (≈ 0.919 to 29.4 µM) | 0.5 to 16 (≈ 0.919 to 29.4 µM)
14 | C[C@H](n1nnnc1CCN1CCN(c2ccc([N+](=O)[O-])cc2)CC1)[C@](O)(Cn1cncn1)c1ccc(F)cc1F | 0.12 to 16 (≈ 0.216 to 28.9 µM) | 0.12 to 16 (≈ 0.216 to 28.9 µM) | 0.12 to 16 (≈ 0.216 to 28.9 µM) | 0.12 to 16 (≈ 0.216 to 28.9 µM) | 0.12 to 16 (≈ 0.216 to 28.9 µM) | 0.12 to 16 (≈ 0.216 to 28.9 µM) | 0.12 to 16 (≈ 0.216 to 28.9 µM)
